In US10167296B2, “Sulfoximine substituted quinazolines for pharmaceutical compositions” (EVOTEC INTERNATIONAL GMBH, priority 2014, dated 2019):
pIC50: −log10 of the molar value.

Tests used:
[1] = molecular target: MNK2a (pre-activated GST-MNK2a) (Homo sapiens (Human), UniProt Q9HBH9); assay: MNK2a in vitro kinase assay (assay 1), ADP-Glo; assay type: biochemical; details: read-out: Mnk2 IC50
Protocol: A. MNK2a In Vitro Kinase Assay (Assay 1)
The inhibition of kinase activity of MNK2a was assessed using pre-activated GST-MNK2a. The white, 384-well OptiPlate F plates were purchased from PerkinElmer. The ADP-Glo Kinase Assay (including ultra pure ATP) was purchased from Promega (V9103). Activated MNK2a was obtained as described in WO2011/104340. […] ID No. 5 of WO 2011/104340 by the C-terminal —CONH2 group, was purchased from Thermo Fisher Scientific. All other materials were of highest grade commercially available. Compounds are tested in either serial dilutions or single dose concentrations. The compound stock solutions are 10 mM in 100% DMSO The serial compound dilutions are prepared in 100% DMSO followed by 1:27.3 intermediate dilution in assay buffer. The final DMSO concentration in assay will be <3%.
In the 384-well plates 3 μl of test compound from the intermediate dilution is mixed with 4 μl of the activated MNK2 enzyme (final concentration of 10 nM) and 4 μl of the peptide (final concentration of 25 μM)/ultra pure ATP (final concentration of 20 μM), all dissolved in assay buffer. This step is followed by an incubation time of 90 min, then 10 μl of ADP Glo reagent are added, followed by 40 min of incubation. Then 20 μl of kinase detection reagent are admixed. The plates are sealed and after an incubation period of 30 min, the luminescence signal is measured in an Envision reader to determine the amount of produced ADP. All incubation steps are performed at room temperature.
The assay buffer consists of 20 mM HEPES, 2 mM DTT, 0.01% BSA, 20 mM MgCl2 and 0.1% Pluronic F-127.
The luminescent signal generated is proportional to the ADP concentration produced and is correlated with activated MNK2 activity. The analysis of the data is performed by the calculation of the percentage of ATP consumption of activated MNK2 in the presence of the test compound compared to the consumption of ATP in the presence of activated MNK2 without compound. (RLU(sample)−RLU(low control))*100/(RLU(high value)−RLU(low control))
[RLU=Relative Luminescence Units]
Values of more than 100% CTL are normally related to compound/sample specific physico-chemical properties (e.g. solubility, light absorbance, fluorescence).
IC50 values based on dose response curves are calculated with the AssayExplorer software.

[2] = molecular target: MNK1a (pre-activated GST-MNK1a) (Homo sapiens (Human), UniProt Q9BUB5); assay: MNK1 in vitro kinase assay (assay 2), Z'-LYTE; assay type: biochemical; details: for inhibition at 1 µM: compound concentration of 1 μM, read-out: Mnk1 % Inh
Sequence of MNK1a (pre-activated GST-MNK1a) (Q9BUB5 other isoform, or with tags, fused parts or gaps): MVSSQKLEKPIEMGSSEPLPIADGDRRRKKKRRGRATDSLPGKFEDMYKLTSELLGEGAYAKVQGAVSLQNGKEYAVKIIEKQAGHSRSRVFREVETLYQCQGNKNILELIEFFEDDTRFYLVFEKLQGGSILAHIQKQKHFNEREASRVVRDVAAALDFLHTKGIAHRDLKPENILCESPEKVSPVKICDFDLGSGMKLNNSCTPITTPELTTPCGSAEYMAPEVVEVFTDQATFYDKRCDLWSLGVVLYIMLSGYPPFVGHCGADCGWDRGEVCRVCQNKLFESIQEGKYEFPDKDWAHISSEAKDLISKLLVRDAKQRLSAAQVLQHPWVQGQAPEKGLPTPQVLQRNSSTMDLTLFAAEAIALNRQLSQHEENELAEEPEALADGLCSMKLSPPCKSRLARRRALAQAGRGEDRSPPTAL
Excerpt: B. MNK1 In Vitro Kinase Assay (Assay 2)
MNK1 Data can be obtained from the MNK1 Z′-LYTE® assay. The MNK1 Z′-LYTE® screening protocol and assay conditions are also described on www.invitrogen.com.
The assay is described as follows:
The Z′-LYTE® biochemical assay employs a fluorescence-based, coupled-enzyme format and is based on the differential sensitivity of phosphorylated and non-phosphorylated peptides to proteolytic cleavage. The peptide substrate is labeled with two fluorophores—one at each end—that make up a FRET pair.
In the primary reaction, the kinase transfers the gamma-phosphate of ATP to a single tyrosine, serine or threonine residue in a synthetic FRET-peptide. In the secondary reaction, a site-specific protease recognizes and cleaves non-phosphorylated FRET-peptides. Phosphorylation of FRET-peptides suppresses cleavage by the Development Reagent. Cleavage disrupts FRET between the donor (i.e., coumarin) and acceptor (i.e., fluorescein) fluorophores on the FRET-peptide, whereas uncleaved, phosphorylated FRET-peptides maintain FRET. A ratiometric method, which calculates the ratio (the Emission Ratio) of donor emission to acceptor emission after excitation of the donor fluorophore at 400 nm, is used to quantitate reaction progress, as shown in the equation below. Emission Ratio=Coumarin Emission(445 nm)/Fluorescein Emission(520 nm)
The inhibition of kinase activity of MNK1a was assessed using pre-activated GST-MNK1a. The 2×MKNK1 (MNK1) mixture is prepared in 50 mM HEPES pH 7.5, 0.01% BRIJ-35, 10 mM MgCl2, 4 mM MnCl2, 1 mM EGTA, 2 mM DTT. The final 10 μL Kinase Reaction consists of 13.5-54 ng MKNK1 (MNK1) and 2 μM Ser/Thr 07 in 50 mM HEPES pH 7.5, 0.01% BRIJ-35, 10 mM MgCl2, 2 mM MnCl2, 1 mM EGTA, 1 mM DTT. After the 1 hour Kinase Reaction incubation, 5 μL of a 1:32768 dilution of Development Reagent A is added.
The Test Compounds are screened in 1% DMSO (final) in the well.
All Peptide/Kinase Mixtures are diluted to a 2×working concentration in the MNK1 Kinase Buffer.
All ATP Solutions are diluted to a 4×working concentration in Kinase Buffer (50 mM HEPES pH 7.5, 0.01% BRIJ-35, 10 mM MgCl2, 1 mM EGTA).
Development Reagent Solution:
The Development Reagent is diluted in Development Buffer
Bar-coded Corning, low volume NBS, 384-well plate (Corning Cat. #3676)
1. 2.5 μL—4×Test Compound
2. 5 μL—2×Peptide/Kinase Mixture
5. 60-minute Kinase Reaction incubation at room temperature
6. 5 μL—Development Reagent Solution
8. 60-minute Development Reaction incubation at room temperature
9. Read on fluorescence plate reader and analyze the data
The following equations are used for each set of data points:
Correction for Background Fluorescence: FISample−FITCFI Ctl Emission Ratio (using values corrected for background fluorescence):Coumarin Emission (445 nm)/Fluorescein Emission (520 nm)
% Phosphorylation (% Phos): 1−((Emission Ratio×F100%)−C100%)/((C0%−C100%)+[Emission Ratio×(F100%−F0%)])*100
% Inhibition: 1−(% PhosSample/% Phos0% Inhibition Ctl)*100 FI=Fluorescence Intensity C100%=Average Coumarin emission signal of the 100% Phos. Control C0%=Average Coumarin emission signal of the 0% Phos. Control F100%=Average Fluorescein emission signal of the 100% Phos. Control F0%=Average Fluorescein emission signal of the 0% Phos. Control
SelectScreen® Kinase Profiling Service uses XLfit from IDBS. The dose response curve is curve fit to model number 205 (sigmoidal dose-response model).

Sequence of MNK2a (pre-activated GST-MNK2a) (Q9HBH9 whole entry): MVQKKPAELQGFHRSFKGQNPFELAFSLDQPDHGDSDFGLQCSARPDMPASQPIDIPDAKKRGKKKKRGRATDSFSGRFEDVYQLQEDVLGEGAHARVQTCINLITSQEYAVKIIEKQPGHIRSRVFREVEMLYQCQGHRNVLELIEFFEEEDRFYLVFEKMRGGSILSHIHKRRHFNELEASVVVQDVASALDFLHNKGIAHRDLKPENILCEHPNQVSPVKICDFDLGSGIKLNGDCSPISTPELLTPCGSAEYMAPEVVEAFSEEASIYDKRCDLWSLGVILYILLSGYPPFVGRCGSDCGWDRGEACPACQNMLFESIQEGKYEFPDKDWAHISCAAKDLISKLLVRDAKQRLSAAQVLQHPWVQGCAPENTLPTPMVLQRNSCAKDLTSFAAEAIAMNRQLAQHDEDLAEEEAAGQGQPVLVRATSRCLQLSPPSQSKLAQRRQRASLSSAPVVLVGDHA

With `Cc1c(OCCCN2CCN(C)C(=O)C2)c(N=S(C)(C)=O)cc2ncnc(Nc3ccc(F)cc3O[C@H](C)C(F)(F)F)c12` [Example 1.01] the pIC50 [1] was 8.26 and the pIC50 [2] was 6.79.

Work on `Cc1c(OCCCN2CCCC2)c(N=S(C)(C)=O)cc2ncnc(Nc3ccc(F)cc3O[C@H](C)C(F)(F)F)c12` [Example 1.02] yielded a pIC50 [1] of 8.62 and a pIC50 [2] of 7.29.

For `CCOc1c(N=S(C)(C)=O)cc2ncnc(Nc3ccc(F)cc3O[C@H](C)C(F)(F)F)c2c1C` [Example 1.03], the pIC50 [1] was 8.80 and the pIC50 [2] was 7.27.

With `Cc1c(OCCN2CCOCC2)c(N=S(C)(C)=O)cc2ncnc(Nc3ccc(F)cc3O[C@H](C)C(F)(F)F)c12` [Example 1.04] the pIC50 [1] was 8.62.

`COc1c(N=S2(=O)CC(OC)C2)cc2ncnc(Nc3ccc(F)cc3O[C@H](C)C(=O)NCC(F)(F)F)c2c1C` (some centres unmarked) [Example 2.01] showed a pIC50 [1] of 8.60 and an inhibition at 1 µM [2] of 103%.

`COc1c(N=S(C)(C)=O)cc2ncnc(Nc3ccc(F)cc3O[C@@H]3CO[C@H]4[C@@H]3OC[C@@H]4F)c2c1C` [Example 2.02] was tested, and the pIC50 [1] was 7.90 and the pIC50 [2] was 7.60.

`COc1c(N=S2(=O)CCCC2)cc2ncnc(Nc3ccc(F)cc3O[C@@H]3CO[C@@H]4CCO[C@@H]43)c2c1C` [Example 2.03] showed a pIC50 [1] of 8.92 and an inhibition at 1 µM [2] of 105%.

`COc1c(N=S2(=O)CCC(O)CC2)cc2ncnc(Nc3ccc(F)cc3O[C@@H]3CO[C@@H]4CCO[C@@H]43)c2c1C` (some centres unmarked) [Example 2.04] showed a pIC50 [1] of 8.92 and an inhibition at 1 µM [2] of 105%.

`COc1c(N=S2(=O)CCCC2)cc2ncnc(Nc3ccc(F)cc3O[C@H](C)C(=O)N[C@@H](C)C(F)(F)F)c2c1C` [Example 2.05] gave a pIC50 [1] of 8.60 and an inhibition at 1 µM [2] of 106%.

`COc1c(N=S2(=O)CCC2)cc2ncnc(Nc3ccc(F)cc3O[C@@H]3CO[C@H]4[C@@H]3OC[C@H]4O)c2c1C` [Example 2.06] gave a pIC50 [1] of 8.92 and a pIC50 [2] of 7.74.

In the case of `COc1c(N=S2(=O)CCC2)cc2ncnc(Nc3ccc(F)cc3O[C@H]3COC[C@@H]3O)c2c1C` [Example 2.07], the pIC50 [1] was 8.57.

`COc1c(N=S2(=O)CCCCC2)cc2ncnc(Nc3ccc(F)cc3O[C@@H]3CO[C@@H]4CCO[C@@H]43)c2c1C` [Example 2.08] was tested, and the pIC50 [1] was 8.85 and the inhibition at 1 µM [2] was 107%.

Compound `COc1c(N=S2(=O)CCCC2)cc2ncnc(Nc3ccc(F)cc3O[C@@H]3CO[C@H]4[C@@H]3OC[C@H]4O)c2c1C` [Example 2.09] has a pIC50 [1] of 8.74 and a pIC50 [2] of 7.85.

For `COc1c(N=S2(=O)CCCC2)cc2ncnc(Nc3cccnc3O[C@@H]3CO[C@@H]4CCO[C@@H]43)c2c1C` [Example 2.10], the pIC50 [1] was 8.48 and the inhibition at 1 µM [2] was 96%.

In the case of `COc1c(N=S2(=O)CCC2)cc2ncnc(Nc3ccc(F)cc3O[C@H](C)C(=O)NCC(F)(F)F)c2c1C` [Example 2.11], the pIC50 [1] was 8.72 and the pIC50 [2] was 7.25.

Work on `COc1c(N=S(C)(=O)C2CCOCC2)cc2ncnc(Nc3ccc(F)cc3O[C@@H]3CO[C@@H]4CCO[C@@H]43)c2c1C` (some centres unmarked) [Example 2.12] yielded a pIC50 [1] of 8.64 and an inhibition at 1 µM [2] of 95%.

Compound `COc1c(N=S(C)(C)=O)cc2ncnc(Nc3ccc(F)cc3O[C@@H]3CO[C@H]4[C@@H]3OC[C@H]4O)c2c1C` [Example 2.13] has a pIC50 [1] of 8.77 and an inhibition at 1 µM [2] of 103%.

`COc1c(N=S(C)(C)=O)cc2ncnc(Nc3ccc(F)cc3OC3CCOCC3)c2c1C` [Example 2.14] was tested, and the pIC50 [1] was 8.43 and the inhibition at 1 µM [2] was 98%.

Compound `Cc1c(OCCCN2CCOCC2)c(N=S2(=O)CCC2)cc2ncnc(Nc3ccc(F)cc3O[C@H](C)C(F)(F)F)c12` [Example 2.15] has a pIC50 [1] of 8.85 and a pIC50 [2] of 7.38.

`COc1c(N=S(C)(C)=O)cc2ncnc(Nc3ccc(F)cc3O[C@H](C)C(F)(F)F)c2c1C` [Example 2.16] gave a pIC50 [1] of 8.46 and an inhibition at 1 µM [2] of 102%.

Compound `COc1c(N=S2(=O)CCOCC2)cc2ncnc(Nc3ccc(F)cc3O[C@@H]3CO[C@@H]4CCO[C@@H]43)c2c1C` [Example 2.17] has a pIC50 [1] of 8.68 and an inhibition at 1 µM [2] of 94%.

Compound `COc1c(N=S(C)(C)=O)cc2ncnc(Nc3ccc(F)cc3O[C@@H]3CO[C@H]4[C@@H]3OC[C@H]4OC)c2c1Cl` [Example 2.28] has a pIC50 [1] of 8.66.
